These results are taken from ChEMBL document CHEMBL1125828 (J Med Chem, 1991).

Experiment [1] addresses GABA-A receptor; anion channel. Briefly: Inhibition of [3H]GABA binding to gamma-aminobutyric-acid A (GABA-A) receptor. The class given is protein-complex assay, Rattus norvegicus.
The next experiment addresses GABA B receptor (Rattus norvegicus, UniProt O88871+Q9Z0U4). The experiment in a line: Displacement of [3H]baclofen from gamma-aminobutyric-acid B receptor. The class given is protein-complex assay. On the technique in general: Loss of bound radioactivity is the signal in a displacement assay; it reports binding, not function.

The structures appear in SMILES notation.

Chain of GABA B receptor (Q9Z0U4 whole entry): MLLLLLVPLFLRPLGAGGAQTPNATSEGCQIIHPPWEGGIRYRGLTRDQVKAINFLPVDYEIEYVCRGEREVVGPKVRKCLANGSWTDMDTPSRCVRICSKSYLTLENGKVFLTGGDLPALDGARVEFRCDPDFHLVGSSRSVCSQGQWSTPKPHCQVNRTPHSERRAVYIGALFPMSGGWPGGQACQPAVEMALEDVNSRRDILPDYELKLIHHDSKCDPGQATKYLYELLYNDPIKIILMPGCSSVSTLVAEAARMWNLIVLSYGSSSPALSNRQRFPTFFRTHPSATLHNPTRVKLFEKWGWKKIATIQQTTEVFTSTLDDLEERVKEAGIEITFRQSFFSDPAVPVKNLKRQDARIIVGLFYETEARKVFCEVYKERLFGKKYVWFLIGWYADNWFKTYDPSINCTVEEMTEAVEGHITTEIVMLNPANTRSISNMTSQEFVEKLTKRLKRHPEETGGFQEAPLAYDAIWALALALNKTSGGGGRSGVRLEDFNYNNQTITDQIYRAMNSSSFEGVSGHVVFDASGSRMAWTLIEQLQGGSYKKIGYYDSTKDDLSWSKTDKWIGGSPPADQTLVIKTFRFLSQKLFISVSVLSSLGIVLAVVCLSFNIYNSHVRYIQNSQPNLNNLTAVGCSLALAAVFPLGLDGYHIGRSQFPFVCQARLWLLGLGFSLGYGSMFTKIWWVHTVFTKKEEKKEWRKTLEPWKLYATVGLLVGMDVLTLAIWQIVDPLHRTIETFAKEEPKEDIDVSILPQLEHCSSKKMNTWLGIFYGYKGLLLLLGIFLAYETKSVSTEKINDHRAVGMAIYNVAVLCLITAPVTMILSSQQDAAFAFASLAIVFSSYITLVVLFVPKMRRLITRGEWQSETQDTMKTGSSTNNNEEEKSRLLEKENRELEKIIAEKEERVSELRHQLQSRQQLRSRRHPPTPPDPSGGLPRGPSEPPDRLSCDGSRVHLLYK
Chain of GABA B receptor (O88871 whole entry): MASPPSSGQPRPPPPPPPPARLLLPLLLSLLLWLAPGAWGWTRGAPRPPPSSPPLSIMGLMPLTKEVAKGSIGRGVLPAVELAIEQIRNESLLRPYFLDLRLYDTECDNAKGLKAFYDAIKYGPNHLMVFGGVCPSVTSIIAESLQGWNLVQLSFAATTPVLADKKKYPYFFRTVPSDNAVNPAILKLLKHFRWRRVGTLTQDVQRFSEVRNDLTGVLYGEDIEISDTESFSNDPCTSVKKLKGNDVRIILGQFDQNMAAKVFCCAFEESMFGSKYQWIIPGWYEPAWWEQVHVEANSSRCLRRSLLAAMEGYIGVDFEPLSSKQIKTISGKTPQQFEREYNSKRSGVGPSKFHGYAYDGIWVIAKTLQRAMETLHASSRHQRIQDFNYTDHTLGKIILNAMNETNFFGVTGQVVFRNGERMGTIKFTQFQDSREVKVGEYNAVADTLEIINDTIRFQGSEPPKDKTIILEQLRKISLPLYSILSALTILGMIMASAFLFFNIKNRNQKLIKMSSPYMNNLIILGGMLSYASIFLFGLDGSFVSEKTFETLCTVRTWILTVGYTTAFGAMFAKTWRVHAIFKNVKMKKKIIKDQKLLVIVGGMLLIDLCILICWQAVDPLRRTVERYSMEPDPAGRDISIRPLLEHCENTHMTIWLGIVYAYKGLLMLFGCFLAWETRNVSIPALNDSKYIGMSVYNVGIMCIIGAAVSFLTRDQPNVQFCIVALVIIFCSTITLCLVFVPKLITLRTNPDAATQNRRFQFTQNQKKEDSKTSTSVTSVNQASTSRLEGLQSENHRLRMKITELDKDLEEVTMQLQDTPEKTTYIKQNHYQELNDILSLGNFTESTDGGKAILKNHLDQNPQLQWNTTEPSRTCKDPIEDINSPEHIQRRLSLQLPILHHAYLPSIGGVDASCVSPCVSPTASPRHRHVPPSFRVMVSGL

Regarding `NCC(CC(=O)O)c1ccc(Cl)cc1Cl` (configuration not stated), the IC50 (in general, the concentration at which inhibition is half-maximal) is > 100 µM in experiment [1] and 11 µM at GABA B receptor.

`NCC1(CC(=O)O)CCCc2ccccc21` (configuration not stated): the IC50 (in experiment [1]; on GABA B receptor) was > 100 µM throughout.

`NCC(CC(=O)O)c1c(Cl)cccc1Cl` (configuration not stated): the IC50 (in experiment [1]; on GABA B receptor) was > 100 µM each time.

`NCC1(CC(=O)O)CCc2ccccc21` (configuration not stated): the IC50 (in experiment [1]; on GABA B receptor) was > 100 µM in each case.

Consider `NCC1(CC(=O)O)Cc2ccccc21` (configuration not stated), for which the IC50 (in experiment [1]; on GABA B receptor) was > 100 µM each time.

In the case of `NCC1(CC(=O)O)CCc2cc(Cl)ccc21` (configuration not stated), the IC50 (in experiment [1]; at GABA B receptor) was > 100 µM in each case.
